The source of these data is patent US20260231914A1, “BRAIN-DERIVED NEUROTROPHIC FACTOR-NANO LUCIFERASE TRANSGENIC RODENTS AND METHODS OF USE THEREOF” (University of Florida Research Foundation, Incorporated, priority 2023, published 2026).

Each structure is given as a SMILES string. “Also recorded” adds a separate entry of the source. Structures can show the parent of a compound that is named as a salt.

The test system of experiment [1] is BDNF-NLuc. Kind of experiment: LOPAC library screening, NLuc activity in cultured Bdnf^NLuc/+ neurons (HTS). It is filed as cell-based, mouse. Particulars: 24 hours; for hit status in repeat screening with 4 different plates of cultured neurons (FIG. 5D): different batch of neurons; for hit: NLuc activity in neurons increased to more than 3× standard deviations over the mean: LOPAC compounds 10 μM, DIV7 neurons, FIGS. 5A-5D. How it is done:
We tested the scalability of the Bdnf^NLuc/+ phenotypic assay by screening the 1280-compound Library of Pharmacologically Active Compounds (LOPAC). We dissected out cortices and hippocampi of 8 Bdnf^NLuc/+ embryos at E18.5 from 2 timed pregnant mice, prepared a suspension of dissociated neurons (10,000 cells/80 μl), transferred 40 ml of the suspension into each of eight 50-ml Falcon centrifuge tubes, used the liquid handling device to plate cells from each aliquot of 40-ml cell suspension onto a 384-well plate (80 μl/well), and cultured neurons.
Using 2 sets of 4 plates each of DIV7 neuronal cultures, we removed 20 μl of medium from each well and then added each LOPAC compound in 20 μl of fresh medium to a well to reach a final concentration of 10 μM. LOPAC compounds (320) were added to wells in the middle 20 columns of each plate, while the first 2 and last 2 columns were used for vehicle controls and positive controls. After 24 hours of incubation, we inverted plates to dump culture medium and then measured NLuc activity in neurons. The NLuc activity in each well is normalized to the average of NLuc activities in 1280 compound-containing wells. […] Compounds that increased the NLuc activity to more than 3× standard deviations (3×SDs) over the mean were considered a hit, and in this case, there are 7 hits in the first set of plates (FIG. 5A) and 10 hits in the second set of plates (FIG. 5B), 7 of which are shared. When the average of duplicate assays for each compound is plotted, we identify the same hits from the second set of plates, with the exception of hit 8 (FIG. 5C). To test the repeatability of the assay in different batches of cultured neurons, we repeated the screening with 4 different plates of cultured neurons.
(§1) Compound treatment and LOPAC library screening. Compound treatment or library screening in primary cultures of Bdnf^NLuc/+ mouse neurons on day 7 in vitro (DIV7) was performed by replacing one-quarter of the culture medium with equal volume of compound-containing medium to yield the desired final concentration for each compound. For the library of pharmacologically active compounds (LOPAC, Millipore), compounds in the original source plates were first dosed using a pintool into 384-well plates containing feeding medium to create a secondary source plate with compounds at 40 μM using the Beckman Coulter's Biomek NXP automated liquid handler (Beckman). 1.6% DMSO and 40 μM (+)-Bay K8644 (Sigma) were added to the first two and the last two columns of the secondary source plate as vehicle and positive control, respectively. Compounds in the secondary source plates were then added to culture neurons in the 384-well plates using a Versette liquid handler. Neurons were treated with compounds for 24 hours in a humidified incubator set to 37° C. and 5% CO2. Luciferase activity was detected the next day using Nano-Glo Luciferase Assay System (Promega) according to the manufacturer's instruction. Luminescence intensity was measured using a microplate reader (FLUOstar Omega, BMG LABTECH) at 460 nm.

Experiment [2] concerns BDNF-NLuc. Kind of experiment: NLuc activity (BDNF-NLuc levels) in cultured Bdnf^NLuc/+ neurons and media after compound treatment. It is filed as cell-based, mouse. Here is the method: We tested our assay for suitability for HTS by using two positive controls. […] The assay produces a good Z′ for both 10 mM KCl and 10 μM DM (FIGS. 4A-4C) (Zhang et al., 1999). To measure NLuc activities in cells, we can simply invert a plate to dump culture medium and then add the Promega Nano-Glo mix, whereas we must transfer a certain amount of culture medium to a new plate and then add the Promega Nano-Glo mix to measure NLuc activities in media.
Primary cortical/hippocampal cell culture and maintenance. Brains of E18.5 Bdnf^NLuc/+ embryos were collected and placed in ice-cold Ca^2+ and Mg^2+ free Hanks' balanced salt solution (HBSS) supplemented with Penicillin-Streptomycin (Pen/Strep, 50 U/mL, Gibco), 25 mM D-glucose, 1 mM pyruvate, and 20 mM HEPES. Cortices and hippocampi were isolated and digested with papain (~12 U/mL, Worthington) at 37° C. for 20 min. Brain tissues were washed with media containing Neurobasal (Gibco), 4% fetal bovine serum (FBS, HyClone), and Pen/Strep. The tissue was gently triturated and allowed to settle, and the supernatant was filtered through a 40 μm cell strainer. Cells were centrifuged at 420×g for 4 min and resuspended in plating media [Neurobasal, 2% FBS, 2% B27 (Gibco), 2 mM GlutaMAX (Gibco), and Pen/Strep]. 1.0×10^4 or 4.5×10^4 cells were plated onto white Greiner μClear 384-well plate (80 μl/well) or PDL-coated 96-well plate (200 μl/well), respectively. Sixteen hours after plating, 75% of the plating media was replaced by feeding media [Neurobasal, 2% B27, 2 mM GlutaMAX, and Pen/Strep] supplemented with 16 μM 5-fluoro-2′-deoxyuridine (FUdR) to prevent overgrowth of non-neuronal cells. Plating and media changes were performed using a Versette liquid handler (Thermo Fisher Scientific) or an 8-channel pipette for the 384-well and 96-well plates, respectively. Cells were maintained at 37° C. and 5% CO2 incubator.
as §1

The next experiment relates to Bdnf gene expression. Particulars: cited from earlier work; for Bdnf gene expression: literature reports, no concentration given.
Another experiment concerns Bdnf mRNA. Kind of experiment: qRT-PCR of Bdnf mRNA and Bdnf mRNA variants in DIV7 Bdnf^NLuc/+ neurons. As to conditions: 5 μM, 24 hours. It is filed as cell-based, mouse. How it is done:
We treated DIV7 Bdnf^NLuc/+ neurons in a 24-well plate with 5 μM GR127935-HCl for 24 hours, isolated total RNA from cultured cells in each well, and ran quantitative RT-PCR (qRT-PCR) to determine levels of total Bdnf mRNA (coding), as well as four major Bdnf mRNA variants (exon 1, exon 2, exon 4, and exon 6).
qRT-PCR validation of HTS hit. DIV7 Bdnf^NLuc/+ neurons were treated in a 24-well plate with 5 μM GR127935-HCl for 24 hours, after which total RNA was isolated from cultured cells in each well and used to perform quantitative RT-PCR (qRT-PCR) to determine the levels of total Bdnf mRNA (coding), as well as four major Bdnf mRNA variants (exon 1, exon 2, exon 4, and exon 6). Levels of Bdnf mRNA variants were quantified using qRT-PCR with 18S rRNA as the internal control.
(Real-time PCR tracks product formation cycle by cycle.)

Experiment [3] deals with protein transport from the ER to the Golgi complex. Particulars: Helms and Rothman, 1992; cited from earlier work.
The mark [4] stands for this setting: KCl 10 mM added DIV7, measured DIV8 (24 hours).
Where [5] appears, read: DM 2-10 μM added DIV7, measured DIV8, listed as DM.

On to `CCCc1c(-c2ccc(O)cc2)nn(-c2ccc(O)cc2)c1-c1ccc(O)cc1` [1,3,5-Tris(4-hydroxyphenyl)-4-propyl-1H-pyrazole], for which, in the experiment on BDNF-NLuc [1] (10 μM), the “hit status in repeat screening with 4 different plates of cultured neurons (FIG. 5D)” value is “rediscovered”. The “hit: NLuc activity in neurons increased to more than 3× standard deviations over the mean” value is recorded as “above dotted line” in the experiment with BDNF-NLuc [1] and “hits” with BDNF-NLuc [1] (listed as PPT).
On to `COC(=O)C1=C(C)NC(C)=C([N+](=O)[O-])C1c1ccccc1C(F)(F)F` (stereo not shown) [Bay K8644], for which the “BDNF levels (NLuc activity)” value in the experiment with BDNF-NLuc [2] (Bay K8644 10 μM, DIV7, 24 hours, 3 batches of cultured neurons) is “increased BDNF levels”. Further, the “hit status in repeat screening with 4 different plates of cultured neurons (FIG. 5D)” value in the experiment on BDNF-NLuc [1] (10 μM) is “rediscovered”. In the experiment on BDNF-NLuc [1], the “hit: NLuc activity in neurons increased to more than 3× standard deviations over the mean” value was “hits and above dotted line”. The Bdnf gene expression entry in the experiment with Bdnf gene expression was “stimulates Bdnf gene expression”.
`COc1ccc(NC(=O)c2ccc(-c3ccc(-c4noc(C)n4)cc3C)cc2)cc1N1CCN(C)CC1` [GR127935-HCl]: in the experiment on BDNF-NLuc [1] (10 μM), the “hit status in repeat screening with 4 different plates of cultured neurons (FIG. 5D)” value was “rediscovered”. Moreover, in the experiment with BDNF-NLuc [1], the “hit: NLuc activity in neurons increased to more than 3× standard deviations over the mean” value is reported as “above dotted line”. Also, the “hit: NLuc activity in neurons increased to more than 3× standard deviations over the mean” value in the experiment with BDNF-NLuc [1] (listed as GR127935 hydrochloride hydrate) is reported as “hits”. For the same compound, in the experiment with Bdnf mRNA, the “Bdnf mRNA variant exon 1” value is on record as “stimulating transcription”, the “Bdnf mRNA variant exon 2” value was “stimulating transcription” and the “Bdnf mRNA variant exon 4” value is listed as “stimulating transcription”. In the experiment with Bdnf mRNA (18S rRNA internal control), the “total Bdnf mRNA (coding) levels” value is reported as “elevated Bdnf mRNA levels”.
Regarding `[Cl-].[K+]` [KCl], in the experiment on BDNF-NLuc [2] (setting [4]), the “levels of BDNF-NLuc in media (NLuc activity)” value is “elevated; also recorded: increased” and the “levels of BDNF-NLuc in neurons (NLuc activity)” value is “elevated; also recorded: increased”. Further, the “Bdnf gene expression in cultured neurons” value in the experiment with Bdnf gene expression (KCl 50 mM for 90 min (Ghosh et al., 1994; Tao et al., 2002)) was “increases Bdnf gene expression”. Further, the Bdnf gene expression result in the experiment on Bdnf gene expression is “stimulates Bdnf gene expression”.
Consider `C#CCN1C(C)=C(C(=O)OC)C(c2cccc([N+](=O)[O-])c2)C(C(=O)OCC)=C1C` (stereo not shown) [N-propargyl nitrendipine], for which the “hit: NLuc activity in neurons increased to more than 3× standard deviations over the mean” value in the experiment on BDNF-NLuc [1] was “hits and above dotted line”.
Take `CCC(C)N(C)C(=O)c1cc2ccccc2c(-c2ccccc2Cl)n1` (stereo not shown) [PK11195]: in the experiment on BDNF-NLuc [1], the “hit: NLuc activity in neurons increased to more than 3× standard deviations over the mean” value was “above dotted line”.
With `C[C@H]1CCC/C=C/[C@@H]2C[C@H](O)C[C@H]2[C@H](O)/C=C/C(=O)O1` [brefeldin A], in the experiment with BDNF-NLuc [1] (10 μM), the “hit status in repeat screening with 4 different plates of cultured neurons (FIG. 5D)” value is listed as “rediscovered”. Further, the “hit: NLuc activity in neurons increased to more than 3× standard deviations over the mean” value in the experiment with BDNF-NLuc [1] is “hits and above dotted line”. Besides, in experiment [3], the “protein transport from the ER to the Golgi complex” value is “inhibit protein transport from the ER to the Golgi complex”.
For the compound `CC1(C)[C@H](C(=O)O[C@H](C#N)c2cccc(Oc3ccccc3)c2)[C@@H]1C=C(Br)Br` [deltamethrin], in the experiment on BDNF-NLuc [2] (setting [5]), the “levels of BDNF-NLuc in media (NLuc activity)” value was “stimulated BDNF production; also recorded: increased” and the “levels of BDNF-NLuc in neurons (NLuc activity)” value is on record as “stimulated BDNF production; also recorded: increased”. Moreover, the Bdnf gene expression entry with Bdnf gene expression is “stimulate Bdnf gene expression”.
As for `COc1ccc(-c2ccc(=N)n(CCCC(=O)O)n2)cc1` [gabazine], the “hit status on the average of duplicate assays (FIG. 5C)” value in the experiment with BDNF-NLuc [1] (10 μM, average of 2 sets of plates) is recorded as “exception”. Further, the “hit: NLuc activity in neurons increased to more than 3× standard deviations over the mean” value in the experiment on BDNF-NLuc [1] is “above dotted line”.
With `CCCCCCCCCCCCCC(=O)O[C@@H]1[C@@H](C)[C@@]2(O)[C@@H](C=C(CO)C[C@]3(O)C(=O)C(C)=C[C@@H]23)[C@@H]2C(C)(C)[C@]12OC(C)=O` [phorbol-12-myristate 13-acetate], the “hit status in repeat screening with 4 different plates of cultured neurons (FIG. 5D)” value with BDNF-NLuc [1] (10 μM) is “just under the threshold”. In addition, the “hit: NLuc activity in neurons increased to more than 3× standard deviations over the mean” value with BDNF-NLuc [1] is “hits and above dotted line”. The “effect on Bay K8644-induced Bdnf gene expression” value in the experiment with Bdnf gene expression (Zafra et al., 1992) is given as “enhance the effect of Bay K8644 on Bdnf gene expression”.
